Key:
Details in all cases: exposure: 5-72 hpf
[1] = system: Danio rerio embryo (fli1:egfp); experiment: heart rate at 72 hpf (beats per minute); higher = faster heart rate
Method: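 fli1:egfp zebrafish embryos exposed 5-72 hpf to chemical (0.05-50 µM, 0.1% DMSO) in 384-well plates; heart rate at 72 hpf quantified from stream acquisitions by semi-automated MetaXpress journal (peak counting); only embryos in concentrations passing survival/body-length criteria analyzed.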

[2] = system: Danio rerio embryo (fli1:egfp); experiment: body length at 72 hpf (µm); higher = longer body (less growth inhibition)
Method: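 Transgenic fli1:egfp zebrafish embryos (one per well, 384-well plate) exposed statically from 5 to 72 hpf at 28 °C to chemical (0.05-50 µM, 0.1% DMSO); at 72 hpf anesthetized and imaged on ImageXpress; body length of live, hatched, correctly oriented embryos measured by automated MetaXpress journal. Dead/unhatched/misoriented embryos have no value.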

[3] = system: Danio rerio embryo (fli1:egfp); experiment: pericardial area at 72 hpf (image area units (not stated)); higher = larger pericardial area (edema)
Method: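 fli1:egfp zebrafish embryos exposed 5-72 hpf to chemical (0.05-50 µM, 0.1% DMSO); pericardial area at 72 hpf measured by semi-automated MetaXpress journal (increase indicates edema).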

[4] = system: Danio rerio embryo (fli1:egfp); experiment: arterial (dorsal aorta) circulation score at 72 hpf (normalized DA-Max (arbitrary units)); higher = more circulation
Method: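 fli1:egfp zebrafish embryos exposed 5-72 hpf to chemical (0.05-50 µM, 0.1% DMSO); arterial circulation at 72 hpf quantified from stream acquisitions of the dorsal aorta by FFT-based analysis (DA-Max, normalized dorsal aorta signal); only concentrations passing survival/body-length criteria analyzed.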

[5] = system: Danio rerio embryo (fli1:egfp); experiment: intersegmental vessel area normalized to body length at 72 hpf (ISV area / body length (normalized units)); higher = more vessel area
Method: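 fli1:egfp zebrafish embryos exposed 5-72 hpf to chemical (0.05-50 µM, 0.1% DMSO); intersegmental vessel (ISV) eGFP area quantified by MetaXpress journal at 72 hpf and normalized to body length.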

C=C(C)[C@H]1Cc2c(ccc3c2O[C@@H]2COc4cc(OC)c(OC)cc4[C@@H]2C3=O)O1 [Rotenone]
0.05 µM
Details	arterial	body length at 72 hpf	heart rate at 72 hpf	intersegmental vessel area normalized	pericardial area at 72 hpf
[1]	–	–	141	–	–
[2]	–	3020	–	–	–
[3]	–	–	–	–	18800
[4]	8.64	–	–	–	–
[5]	–	–	–	85.6	–

Cc1nn(-c2cc(NS(C)(=O)=O)c(Cl)cc2Cl)c(=O)n1C(F)F [Sulfentrazone]
Details	arterial, [4]	body length at 72 hpf, [2]	heart rate at 72 hpf, [1]	intersegmental vessel area normalized, [5]	pericardial area at 72 hpf, [3]
0.05 µM	11.4	3000	156	77.2	17900
0.098 µM	11.7	2990	158	76.8	16100
0.195 µM	12.6	2990	158	71.2	16300
0.39 µM	9.83	2970	157	72.4	15600
0.78 µM	11.3	2920	161	78.9	16100
1.56 µM	8.91	2930	163	72.4	18600
3.125 µM	8.71	2970	162	71.4	17200
6.25 µM	8.86	3030	167	69.7	20400
12.5 µM	7.1	3020	170	74.8	18700
25 µM	11.1	2970	169	71.2	21700
50 µM	5.34	2950	173	71.2	21200

CCc1nn(C)c(C(=O)NCc2ccc(C(C)(C)C)cc2)c1Cl [Tebufenpyrad]
Details	arterial, [4]	body length at 72 hpf, [2]	heart rate at 72 hpf, [1]	intersegmental vessel area normalized, [5]	pericardial area at 72 hpf, [3]
0.05 µM	9.08	2980	155	75.7	13400
0.098 µM	10.5	2960	166	75.9	13600
0.195 µM	10.6	2960	160	78.8	13000
0.39 µM	11.6	2990	166	76.5	14800
0.78 µM	14.2	2950	174	77	16300

CN(C)C(=S)SSC(=S)N(C)C [Thiram]
Details	arterial, [4]	body length at 72 hpf, [2]	heart rate at 72 hpf, [1]	intersegmental vessel area normalized, [5]	pericardial area at 72 hpf, [3]
95 pM	9.22	3070	180	95.8	11600
0.00019 µM	11.1	3010	187	101	11600
0.00038 µM	9.48	3060	179	97.6	12500
0.00076 µM	10.3	3020	192	98.6	11500
0.0015 µM	11	3050	191	95.6	11200
0.003 µM	9.4	3070	196	99.4	12900
0.0061 µM	8.74	3050	196	110	14600
0.0122 µM	9.58	3070	189	99.1	12000
0.0244 µM	11.3	3080	179	97.9	12400

CCCCSP(=O)(SCCCC)SCCCC [Tribufos]
Details	arterial, [4]	body length at 72 hpf, [2]	heart rate at 72 hpf, [1]	intersegmental vessel area normalized, [5]	pericardial area at 72 hpf, [3]
0.05 µM	11.1	2900	166	79.6	13400
0.098 µM	14.1	2950	161	84.8	13600
0.195 µM	14.9	2990	182	92.3	14700
0.39 µM	15.4	2940	169	83.8	13700
0.78 µM	14.8	2940	167	86	14600
1.56 µM	16.1	2910	164	87.5	14200
3.125 µM	14.5	2980	172	81.8	13300
6.25 µM	15	2970	176	94.4	15200
12.5 µM	13.9	2870	166	81.3	13400

CO/N=C(/C(=O)OC)c1ccccc1CO/N=C(\C)c1cccc(C(F)(F)F)c1 [Trifloxystrobin]
Details	arterial, [4]	body length at 72 hpf, [2]	heart rate at 72 hpf, [1]	intersegmental vessel area normalized, [5]	pericardial area at 72 hpf, [3]
0.05 µM	12.1	2950	172	71	12800
0.098 µM	11.6	3060	171	73.5	10600
0.195 µM	15.7	3030	167	70.2	12300
0.39 µM	15	2970	173	67.6	12200
0.78 µM	14.9	3000	166	68.9	13900
